Results on two molecules are retold here after patent publication US11071488B2, “Method for determining the likelihood of torsades de pointes being induced” (ASSISTANCE PUBLIQUE—HOPITAUX DE PARIS, priority 2016, dated 2021).

Data set [1] deals with T1, IKr channel (Homo sapiens, UniProt Q12809). Kind of data set: ECG changes three hours after a single oral dose of 80 mg sotalol (GENEREPOL cohort, Example 1). It is filed as in vivo. Set-up: from tissue; host or cells: heart (ventricular myocardium) of living human volunteers; surface ECG read-out. The following applies: H3. The protocol: The cohort of patients was that of the GENEREPOL study, and consisted of 995 volunteers in good health, from 18 to 60 years old, of European or North African origin. The objective of this study was to identify genetic predispositions linked to the inhibition of the IKr channel after administration of 80 mg sotalol, with a body mass index between 19 and 29 kg/m^2, informed consent having been received. […]
T1 sequence (Q12809 whole entry): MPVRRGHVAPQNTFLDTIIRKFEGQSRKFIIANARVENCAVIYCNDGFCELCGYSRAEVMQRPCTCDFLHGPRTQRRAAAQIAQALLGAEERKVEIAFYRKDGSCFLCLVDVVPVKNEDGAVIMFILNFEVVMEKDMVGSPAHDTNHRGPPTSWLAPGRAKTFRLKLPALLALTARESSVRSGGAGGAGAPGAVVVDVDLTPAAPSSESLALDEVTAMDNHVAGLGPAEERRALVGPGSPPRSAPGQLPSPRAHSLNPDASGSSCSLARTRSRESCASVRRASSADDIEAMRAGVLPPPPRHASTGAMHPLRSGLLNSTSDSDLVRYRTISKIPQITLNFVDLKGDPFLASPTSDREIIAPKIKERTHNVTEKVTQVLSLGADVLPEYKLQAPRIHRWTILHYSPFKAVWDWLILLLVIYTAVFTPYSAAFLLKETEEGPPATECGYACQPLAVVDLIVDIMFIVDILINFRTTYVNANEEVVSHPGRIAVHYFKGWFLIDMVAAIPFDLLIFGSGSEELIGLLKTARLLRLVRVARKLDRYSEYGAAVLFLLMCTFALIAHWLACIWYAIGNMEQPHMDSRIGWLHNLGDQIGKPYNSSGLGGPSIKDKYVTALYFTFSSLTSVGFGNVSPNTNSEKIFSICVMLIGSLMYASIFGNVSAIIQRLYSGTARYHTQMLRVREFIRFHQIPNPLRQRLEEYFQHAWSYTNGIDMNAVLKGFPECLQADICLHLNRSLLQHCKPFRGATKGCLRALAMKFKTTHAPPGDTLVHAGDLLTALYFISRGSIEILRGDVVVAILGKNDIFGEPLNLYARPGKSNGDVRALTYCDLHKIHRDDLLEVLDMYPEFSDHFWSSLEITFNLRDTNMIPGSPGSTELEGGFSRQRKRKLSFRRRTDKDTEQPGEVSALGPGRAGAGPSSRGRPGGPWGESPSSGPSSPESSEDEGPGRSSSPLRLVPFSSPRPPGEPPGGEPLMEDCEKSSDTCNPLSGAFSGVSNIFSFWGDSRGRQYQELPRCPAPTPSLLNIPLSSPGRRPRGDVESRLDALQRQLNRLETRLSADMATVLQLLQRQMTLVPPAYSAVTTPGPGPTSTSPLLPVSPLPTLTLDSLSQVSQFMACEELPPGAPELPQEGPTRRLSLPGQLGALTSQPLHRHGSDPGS
An intravenous catheter was inserted for taking blood samples. The ECG of the patients was then recorded using the Cardioplug device (Cardionics Inc®, Brussels, Belgium) connected to a laptop computer. […] Three hours after sotalol had been taken ([…]), the ECG was again recorded (in triplicate) after the subjects had remained lying on their back for 10 minutes and before lunch. […]
The QTcF, TpTe and TAmp and the presence of notches (double peak) in the T wave were quantified. […]
The quantitative analysis of the QTcF, TpTe and TAmp was carried out by two trained investigators, in order to limit the inter-evaluator variability.
TpTe was measured by the tangent method, in triplicate, on a representative beat (average representation of an ECG of 10 seconds) on the V3, V4 and V5 leads. […]
QTcF was measured by the tangent method on the DII lead for three consecutive beats and the average value of an evaluation in triplicate was retained. […]

In data set [2] the target is T1, IKr channel. As to conditions: for double peaks (notches) three hours after taking sotalol: 80 mg sotalol.
Procedure: The QTcF, TAmp and TpTe were measured according to the same protocol as for example 1, before and three hours after administration of a single oral dose of sotalol at 80 mg.
The ΔQTcF, ΔTpTe and ΔTAmp were also calculated.
Data set [3] deals with IKr potassium channel (Homo sapiens, UniProt Q12809). As to conditions: cited from earlier work.
IKr potassium channel, sequence (Q12809 whole entry): as above

Like-named read-outs stand apart in the source and are kept apart here.

Turning to `CC(C)NCC(O)c1ccc(NS(C)(=O)=O)cc1` (stereo not drawn) [sotalol], the “subjects exhibiting a double peak (notch)” value in data set [1] (first (exploration) cohort, 40 subjects) is 8%. For the same molecule, the “subjects exhibiting a double peak (notch)” value in data set [1] (second (replication) cohort, 51 subjects) came to 10%. In addition, the “double peaks (notches) three hours after taking sotalol” value in data set [2] (women not taking an oral contraceptive) amounted to 13.4%. Also, the plasma sotalol concentration entry in data set [2] (women taking drospirenone vs women with no contraception) is recorded as “No difference”. In data set [3] (dose-dependent), the “risk of induction of torsades de pointes” value is listed as “up to 7 % of patients treated”. In addition, in data set [3] (sotalol at 80 mg), the “increase in QT/QTc” value is “approximately 20 ms” and the “induction of an episode of torsade de pointes” value is recorded as “does not induce an episode of torsade de pointes”. In addition, the “time of maximum concentration after oral intake” value in data set [3] (taken orally) is recorded as “approximately 3 hours”.

`C[C@]12CCC(=O)C=C1[C@@H]1C[C@@H]1[C@H]1[C@@H]3[C@@H]4C[C@@H]4[C@@]4(CCC(=O)O4)[C@@]3(C)CC[C@@H]12` [drospirenone]: in data set [2] (women taking drospirenone), the “double peaks (notches) three hours after taking sotalol” value came out at 25.8%.
